From ChEMBL document CHEMBL1151816, “Cytotoxic spirostane-type saponins from the roots of Chlorophytum borivilianum” (J Nat Prod, 2009)
Activity calls are given as the source filed them. The rule behind the calls is not given here.

Experiments:
Format in all cases: functional, cell-based
[1] = test system: HCT-116; experiment: Cytotoxicity against human HCT116 cells at 0.38 uM after 4 days by MTT assay
[2] = test system: HT-29; experiment: Cytotoxicity against human HT-29 cells at 2.6 uM after 4 days by MTT assay
[3] = test system: HCT-116; experiment: Cytotoxicity against human HCT116 cells after 4 days by MTT assay; details: HCT-116, 96 h

With `C=C1CC[C@@]2(OC1)O[C@H]1C[C@H]3[C@@H]4CC[C@H]5C[C@@H](O[C@@H]6O[C@H](CO)[C@H](O[C@@H]7O[C@H](CO)[C@@H](O)[C@H](O[C@@H]8OC[C@@H](O)[C@H](O)[C@H]8O)[C@H]7O[C@@H]7O[C@H](CO)[C@@H](O)[C@H](O)[C@H]7O)[C@H](O)[C@H]6O)[C@H](O)C[C@]5(C)[C@H]4CC[C@]3(C)[C@H]1[C@@H]2C` the Activity [1] was “Active” and the Activity [2] was “Active”.

`CC(=O)O[C@H]1C(=O)[C@@]2(C)[C@H]([C@H](OC(=O)c3ccccc3)[C@]3(O)C[C@H](OC(=O)[C@H](O)[C@@H](NC(=O)c4ccccc4)c4ccccc4)C(C)=C1C3(C)C)[C@]1(OC(C)=O)CO[C@@H]1C[C@@H]2O` [PACLITAXEL] was tested, and the IC50 [3] was 1.1 nM.
